Like-named read-outs stand apart in the source and are kept apart here.
Assays:
Assay type in all cases: biochemical
KLKB1 [1] = target: T1, KLKB1 (Homo sapiens (Human), UniProt P03952); assay: Inhibition of KLKB1 using an endpoint assay (fluorogenic substrate H-Pro-Phe-Arg-AMC); details: endpoint assay, 1 h at room temperature, 0.10 μM H-Pro-Phe-Arg-AMC; read-out: IC50
Description: (§1) The ability of compounds of formula (I) to inhibit plasma kallikrein (KLKB1), Factor XIIa (FXIIa), Factor XIa (FXIa), Factor Xa (FXa), Factor IIa (alpha-thrombin; FIIa), plasmin, trypsin, tissue kallikrein 1 (KLK1), Factor Vila (FVIIa), or FVIIa complexed with Tissue Factor, phospholipids and CaCl2 (FVIIa/TF/PL/CaCl2) was determined using the following biochemical assays in assay buffer (100 mM Tris, 150 mM NaCL, adjusted to a pH of 7.8 with HCl, and containing 0.1% (w/v) BSA and 0.05% (v/v) Tween20) in the presence of 1% (v/v) DMSO:
Evaluation of the Inhibition of KLKB1 Using an Endpoint Assay
Human KLKB1 (0.01 U/mL; Enzyme Research Laboratories) or rat KLKB1 (0.625 nM; produced in-house) was incubated for 1 h at room temperature with 0.10 μM fluorogenic substrate H-Pro-Phe-Arg-AMC (11295 from Bachem) and various concentrations of the test compound in assay buffer. Subsequently, PPACK 11 (Calbiochem) was added as a stop solution to achieve a final concentration of 1 μM and fluorescence was measured using an Envision Reader (PerkinElmer) with the wavelength excitation setting of 355 nm and the wavelength emission setting of 460 nm.
(§2) The number of the compound corresponds to the number of the Example in the experimental section.

KLKB1 [2] = target: T1, KLKB1; assay: Inhibition of human KLKB1 in dextran sulfate activated human PPP; details: human platelet poor plasma (EDTA) activated with 12.5 μg/mL dextransulfate, 24° C.; read-out: IC50
Description: Evaluation of the Inhibition of Human KLKB1 in Dextran Sulfate Activated Human PPP
Platelet poor plasma (PPP) obtained from human wholeblood, anticoagulated with EDTA, was activated with 12.5 μg/mL dextransulfate for 7 min on ice. The activated PPP was incubated with various concentrations of the test compound in assay buffer. Afterwards the mixture was incubated at 24° C. with 0.25 mM fluorogenic substrate H-Pro-Phe-Arg-AMC (11295 from Bachem) and measurements were performed in a kinetic interval every 2nd minute for 16 min using a Spectramax M5 (Molecular Devices) with the following settings of the wavelength excitation of 350 nm and wavelength emission of 450 nm.
as §2

KLKB1 [3] = target: T1, KLKB1; assay: Inhibition of KLKB1 in kaolin activated human PPP; details: for IC50: read-out: IC50
Description: Evaluation of the Inhibition of KLKB1 in Kaolin Activated Human PPP
Platelet poor plasma (PPP) obtained from human wholeblood, anticoagulated with Na-Citrat, was incubated with various concentrations of the test compound together with either 25, 75, 250, or 750 μg/mL kaolin in assay buffer for 20 min at 37° C. such that for each kaolin dose used a concentration response was obtained for the test compound.
as §2

KLKB1 [4] = target: T1, KLKB1; assay: Inhibition of KLKB1 (Ki), kinetic assay; details: 24° C., 0.25 mM H-Pro-Phe-Arg-AMC; IC50 corrected for KM of substrate
Description: as §1
Evaluation of the Inhibition of KLKB1 (Ki)
Measurements were performed in a kinetic interval every 2nd minute for 16 min using a Spectramax M5 (Molecular Devices) with the following settings of the wavelength excitation of 350 nm and wavelength emission of 450 nm.
as §2
Calculation of pIC50 and Pki Values
The pIC50 values were then fitted using a four-parametric fitting procedure using GraphPad Prism (version 6; GraphPad Software, Inc.).
Where the IC50 is in molar and the KM value in mM.

[5] = human platelet poor plasma (Na-Citrat), 25, 75, 250 or 750 μg/mL kaolin, global fit
[6] = human platelet poor plasma (Na-Citrat), 25, 75, 250 or 750 μg/mL kaolin, global fit, read-out: IC90

T1 sequence (P03952 391-638 limits assumed): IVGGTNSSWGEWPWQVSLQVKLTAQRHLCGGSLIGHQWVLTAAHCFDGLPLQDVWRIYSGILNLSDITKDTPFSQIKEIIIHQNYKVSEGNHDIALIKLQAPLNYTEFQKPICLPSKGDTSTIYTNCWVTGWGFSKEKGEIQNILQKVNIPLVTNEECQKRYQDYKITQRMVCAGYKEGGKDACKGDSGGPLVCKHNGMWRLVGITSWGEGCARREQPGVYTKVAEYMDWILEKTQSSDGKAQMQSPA
T1 sequence (P03952 20-390 partner limits assumed): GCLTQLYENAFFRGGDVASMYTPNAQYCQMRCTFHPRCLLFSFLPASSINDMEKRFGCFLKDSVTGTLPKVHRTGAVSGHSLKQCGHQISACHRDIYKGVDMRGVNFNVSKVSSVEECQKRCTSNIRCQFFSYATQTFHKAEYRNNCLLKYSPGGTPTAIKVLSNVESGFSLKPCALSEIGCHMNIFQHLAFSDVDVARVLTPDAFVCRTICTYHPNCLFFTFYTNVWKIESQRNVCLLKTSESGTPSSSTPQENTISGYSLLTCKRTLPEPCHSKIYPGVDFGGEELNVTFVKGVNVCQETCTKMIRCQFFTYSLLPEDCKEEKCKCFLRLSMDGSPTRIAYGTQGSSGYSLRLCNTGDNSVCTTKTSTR

Structure (SMILES) | IC50 (KLKB1 [1]) [nM] | IC50 (KLKB1 [2]) [nM] | IC50 (KLKB1 [3]; [5]) [nM] | IC90 (KLKB1 [3]; [6]) [nM] | Ki (KLKB1 [4]) [nM] | IC90 (KLKB1 [3]) [nM]
Cc1nc(N2CC3C(C2)C3(F)F)ccc1Cn1cc(C(=O)N[C@@H]2CCc3c2ccnc3N)nn1 (stereo partly drawn) [Example 8] | 5.5 |  |  |  |  | 
Cc1nc(N2CC3CC3C2)ncc1Cn1cc(C(=O)N[C@@H]2CCc3c2ccnc3N)cn1 (stereo partly drawn) [Example 11] | 1.7 | 50.3 | 23.9 | 232 | 1.5 | 
Cc1nc(N2C[C@@H]3[C@H](C#N)[C@@H]3C2)ccc1Cn1cc(C(=O)N[C@@H]2CCc3c2ccnc3N)cn1 [Example 13, N-[(5R)-1-Amino-5H,6H,7H-cyclopenta[c]pyridin-5-yl]-1-({6-[(1R,5S,6R)-6-cyano-3-azabicyclo[3.1.0]hexan-3-yl]-2-methylpyridin-3-yl}methyl)-1H-pyrazole-4-carboxamide] | 0.5 | 32.3 |  |  | 0.3 | 
Cc1cc2c(c(N)n1)CC[C@H]2NC(=O)c1cn(Cc2ccc(N3CC4CC4C3)nc2C)nc1C (stereo partly drawn) [Example 15, N-[(5R)-1-Amino-3-methyl-5H,6H,7H-cyclopenta[c]pyridin-5-yl]-1-[(6-{3-azabicyclo[3.1.0]hexan-3-yl}-2-methylpyridin-3-yl)methyl]-3-methyl-1H-pyrazole-4-carboxamide] | 0.5 |  |  |  | 0.4 | 
Cc1cc2c(c(N)n1)CC[C@H]2NC(=O)c1cn(Cc2cnc(N3CC4CC4C3)nc2C)nn1 (stereo partly drawn) [Example 18, N-[(5R)-1-Amino-3-methyl-5H,6H,7H-cyclopenta[c]pyridin-5-yl]-1-[(2-{3-azabicyclo[3.1.0]hexan-3-yl}-4-methylpyrimidin-5-yl)methyl]-1H-1,2,3-triazole-4-carboxamide] | 1.2 |  |  |  | 0.5 | 
Cc1nc(N2CC3CC3C2)ccc1Cn1cc(C(=O)N[C@@H]2CCc3c2ccnc3N)c(C)n1 (stereo partly drawn) [Example 3] | 0.7 |  | 20.1 | 238 | 0.3 | 
Cc1nc(N2CC3CC3C2)ccc1Cn1cc(C(=O)N[C@@H]2CCc3c2ccnc3N)nn1 (stereo partly drawn) [Example 5] | 0.8 | 61.2 |  |  | 0.4 | 
Cc1cc2c(c(N)n1)CC[C@H]2NC(=O)c1cnn(Cc2ccc(N3CC4C(C3)C4(F)F)nc2C)c1 (stereo partly drawn) [Example 10, N-[(5R)-1-Amino-3-methyl-5H,6H,7H-cyclopenta[c]pyridin-5-yl]-1-[(6-{6,6-difluoro-3-azabicyclo[3.1.0]hexan-3-yl}-2-methylpyridin-3-yl)methyl]-1H-pyrazole-4-carboxamide] | 0.4 |  | 16.2 |  | 0.4 | 96.2
Cc1nc(N2CCC3(CC3)C2)ccc1Cn1cc(C(=O)N[C@@H]2CCc3c2ccnc3N)cn1 [Example 14] | 2 | 80.3 |  |  | 1.1 | 
Cc1nc(N2CC3CC3C2)ccc1Cn1cc(C(=O)N[C@@H]2CCc3c2ccnc3N)c(C(F)(F)F)n1 (stereo partly drawn) [Example 4] | 0.8 |  | 18 | 446 | 0.4 | 
Cc1cc2c(c(N)n1)CC[C@H]2NC(=O)c1cnn(Cc2cnc(N3CC4CC4C3)nc2C)c1 (stereo partly drawn) [Example 17, N-[(5R)-1-Amino-3-methyl-5H,6H,7H-cyclopenta[c]pyridin-5-yl]-1-[(2-{3-azabicyclo[3.1.0]hexan-3-yl}-4-methylpyrimidin-5-yl)methyl]-1H-pyrazole-4-carboxamide] | 1 |  | 52.2 |  | 0.5 | 511
Cc1nc(N2CC3CC3C2)ccc1Cn1cc(C(=O)N[C@@H]2CCc3c2ccnc3N)c(C(C)C)n1 (stereo partly drawn) [Example 6] | 1 |  |  |  |  | 
Cc1nc(N2C[C@@H]3[C@H](CO)[C@@H]3C2)ccc1Cn1cc(C(=O)N[C@@H]2CCc3c2ccnc3N)cn1 [Example 12] | 1.9 | 46.7 |  |  | 0.6 | 
Cc1cc2c(c(N)n1)CC[C@H]2NC(=O)c1cnn(Cc2ccc(N3CC4CC4C3)nc2C)c1 (stereo partly drawn) [Example 2] | 0.3 |  | 16.6 | 134 | 0.3 | 
Cc1nc(N2CC3C(C2)C3(F)F)ccc1Cn1cc(C(=O)N[C@@H]2CCc3c2ccnc3N)c(C(F)(F)F)n1 (stereo partly drawn) [Example 7] | 1.1 |  | 17.9 | 199 | 1.9 | 
Cc1nc(N2CC3CC3C2)ncc1Cn1cc(C(=O)N[C@@H]2CCc3c2ccnc3N)nn1 (stereo partly drawn) [Example 16, N-[(5R)-1-Amino-5H,6H,7H-cyclopenta[c]pyridin-5-yl]-1-[(2-{3-azabicyclo[3.1.0]hexan-3-yl}-4-methylpyrimidin-5-yl)methyl]-1H-1,2,3-triazole-4-carboxamide] | 5.3 |  |  |  | 2.2 | 

Further lines, with some results ahead:

IC50 (KLKB1 [1]) [nM] | IC50 (KLKB1 [2]) [nM] | IC50 (KLKB1 [3]; [5]) [nM] | IC90 (KLKB1 [3]; [6]) [nM] | Ki (KLKB1 [4]) [nM] | Structure (SMILES) | IC90 (KLKB1 [3]) [nM]
3.9 |  |  |  |  | Cc1nc(N2CC3C(C2)C3(F)F)ncc1Cn1cc(C(=O)N[C@@H]2CCc3c2ccnc3N)nn1 (stereo partly drawn) [Example 20, N-[(5R)-1-Amino-5H,6H,7H-cyclopenta[c]pyridin-5-yl]-1-[(2-{6,6-difluoro-3-azabicyclo[3.1.0]hexan-3-yl}-4-methylpyrimidin-5-yl)methyl]-1H-1,2,3-triazole-4-carboxamide] | 
1.1 |  |  |  |  | COc1nn(Cc2ccc(N3CC4CC4C3)nc2C)cc1C(=O)N[C@@H]1CCc2c1ccnc2N (stereo partly drawn) [Example 22, N-[(5R)-1-Amino-5H,6H,7H-cyclopenta[c]pyridin-5-yl]-1-[(6-{3-azabicyclo[3.1.0]hexan-3-yl}-2-methylpyridin-3-yl)methyl]-3-methoxy-1H-pyrazole-4-carboxamide] | 
1 |  |  |  |  | Cc1nc(N2CC3CC3C2)ccc1Cn1cc(C(=O)N[C@@H]2CCc3c2ccnc3N)c(C(F)F)n1 (stereo partly drawn) [Example 19, N-[(5R)-1-Amino-5H,6H,7H-cyclopenta[c]pyridin-5-yl]-1-[(6-{3-azabicyclo[3.1.0]hexan-3-yl}-2-methylpyridin-3-yl)methyl]-3-(difluoromethyl)-1H-pyrazole-4-carboxamide] | 
1.4 |  |  |  |  | Cc1cc2c(c(N)n1)CC[C@H]2NC(=O)c1cn(Cc2cnc(N3CC4C(C3)C4(F)F)nc2C)nn1 (stereo partly drawn) [Example 21, N-[(5R)-1-Amino-3-methyl-5H,6H,7H-cyclopenta[c]pyridin-5-yl]-1-[(2-{6,6-difluoro-3-azabicyclo[3.1.0]hexan-3-yl}-4-methylpyrimidin-5-yl)methyl]-1H-1,2,3-triazole-4-carboxamide] | 
9.9 |  |  |  |  | Cc1nc(N2CC3C(C2)C3(C)C)ccc1Cn1cc(C(=O)N[C@@H]2CCc3c2ccnc3N)cn1 (stereo partly drawn) [Example 23, N-[(5R)-1-Amino-5H,6H,7H-cyclopenta[c]pyridin-5-yl]-1-[(6-{6,6-dimethyl-3-azabicyclo[3.1.0]hexan-3-yl}-2-methylpyridin-3-yl)methyl]-1H-pyrazole-4-carboxamide] | 
0.6 |  |  |  |  | Cc1nc(N2C[C@@H]3[C@H](C)[C@@H]3C2)ccc1Cn1cc(C(=O)N[C@@H]2CCc3c2ccnc3N)cn1 [Example 24, 1-[2-Methyl-6-((1S,5R,6R)-6-methyl-3-aza-bicyclo[3.1.0]hex-3-yl)-pyridin-3-ylmethyl]-1H-pyrazole-4-carboxylic acid ((R)-1-amino-6,7-dihydro-5H-[2]pyrindin-5-yl)-amide] | 
1.2 |  |  |  |  | Cc1nc(N2CC3(CC3)C2)ccc1Cn1cc(C(=O)N[C@@H]2CCc3c2ccnc3N)cn1 [Example 26, 1-[6-(5-Aza-spiro[2.3]hex-5-yl)-2-methyl-pyridin-3-ylmethyl]-1H-pyrazole-4-carboxylic acid ((R)-1-amino-6,7-dihydro-5H-[2]pyrindin-5-yl)-amide] | 
2.1 |  |  |  |  | Cc1nc(N2CC3(CCC3)C2)ccc1Cn1cc(C(=O)N[C@@H]2CCc3c2ccnc3N)cn1 [Example 25, 1-[6-(2-Aza-spiro[3.3]hept-2-yl)-2-methyl-pyridin-3-ylmethyl]-1H-pyrazole-4-carboxylic acid ((R)-1-amino-6,7-dihydro-5H-[2]pyrindin-5-yl)-amide] | 
